Assay [1] deals with prostate cancer PC3 cell line. Description: Anti-proliferative SRB assay, PC3. The settings on record: PC3 cells, 72 h exposure. It counts as cell-based. As to the method: (§1) The anti-proliferative activity of compounds was evaluated by sulforhodamin B (SRB) assay. After being cultured for 10 h, cells in 96-well plates were subjected to 72 h-exposure to serially diluted compound solutions. Cells were washed with PBS and fixed with trichloroacetic acid (10%, W/V) at 4°C for 1 h. Then, cells were successively washed with PBS, stained for 0.5 h with SRB (0.4%, dissolved in 1% acetic acid), and washed by 1% acetic acid for 5 times. Protein-bound dye was extracted with unbuffered Tris base (10 mmol). After calculating the percent inhibition from absorbance, measured at 515 nm with a multiscan spectrum (Thermo Electron Co., Vantaa, Finland), the curves were fitted in Graphpad Prism 5 to give GI50 values.

The target in another assay is PI3Kα (Homo sapiens, UniProt P42336). Nature of the assay: PI3Kα enzymatic assay (Kinase-Glo Luminescent Kinase assay). It is filed as biochemical.
Chain of PI3Kα (P42336 whole entry): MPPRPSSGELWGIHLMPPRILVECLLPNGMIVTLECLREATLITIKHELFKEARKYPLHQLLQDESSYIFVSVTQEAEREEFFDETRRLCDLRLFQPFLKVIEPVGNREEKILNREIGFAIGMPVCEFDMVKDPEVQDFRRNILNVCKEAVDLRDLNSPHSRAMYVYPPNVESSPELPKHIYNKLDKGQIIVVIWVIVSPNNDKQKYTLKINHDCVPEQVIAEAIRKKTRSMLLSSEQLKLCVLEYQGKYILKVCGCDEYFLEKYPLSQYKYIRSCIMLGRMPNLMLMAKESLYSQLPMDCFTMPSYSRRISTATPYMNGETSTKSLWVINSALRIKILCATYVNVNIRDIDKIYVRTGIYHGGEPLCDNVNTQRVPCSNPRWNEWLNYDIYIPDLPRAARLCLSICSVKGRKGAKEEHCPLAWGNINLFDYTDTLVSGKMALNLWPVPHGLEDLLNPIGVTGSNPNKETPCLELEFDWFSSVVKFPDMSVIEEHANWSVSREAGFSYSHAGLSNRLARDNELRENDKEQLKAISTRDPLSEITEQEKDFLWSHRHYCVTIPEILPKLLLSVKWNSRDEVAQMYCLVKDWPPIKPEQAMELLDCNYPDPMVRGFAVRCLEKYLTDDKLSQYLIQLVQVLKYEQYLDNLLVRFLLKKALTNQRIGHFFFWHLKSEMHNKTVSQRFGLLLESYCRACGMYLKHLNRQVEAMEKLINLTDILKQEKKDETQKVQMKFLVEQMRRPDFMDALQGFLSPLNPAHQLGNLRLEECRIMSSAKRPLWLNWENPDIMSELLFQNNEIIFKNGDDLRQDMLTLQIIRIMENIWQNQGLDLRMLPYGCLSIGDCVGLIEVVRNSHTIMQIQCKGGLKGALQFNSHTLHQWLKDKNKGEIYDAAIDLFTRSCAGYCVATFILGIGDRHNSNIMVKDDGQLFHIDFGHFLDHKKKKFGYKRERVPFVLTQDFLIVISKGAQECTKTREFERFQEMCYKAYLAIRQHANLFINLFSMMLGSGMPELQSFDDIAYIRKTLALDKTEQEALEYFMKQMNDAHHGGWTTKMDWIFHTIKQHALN
Chain of PI3Kα (P27986 whole entry partner): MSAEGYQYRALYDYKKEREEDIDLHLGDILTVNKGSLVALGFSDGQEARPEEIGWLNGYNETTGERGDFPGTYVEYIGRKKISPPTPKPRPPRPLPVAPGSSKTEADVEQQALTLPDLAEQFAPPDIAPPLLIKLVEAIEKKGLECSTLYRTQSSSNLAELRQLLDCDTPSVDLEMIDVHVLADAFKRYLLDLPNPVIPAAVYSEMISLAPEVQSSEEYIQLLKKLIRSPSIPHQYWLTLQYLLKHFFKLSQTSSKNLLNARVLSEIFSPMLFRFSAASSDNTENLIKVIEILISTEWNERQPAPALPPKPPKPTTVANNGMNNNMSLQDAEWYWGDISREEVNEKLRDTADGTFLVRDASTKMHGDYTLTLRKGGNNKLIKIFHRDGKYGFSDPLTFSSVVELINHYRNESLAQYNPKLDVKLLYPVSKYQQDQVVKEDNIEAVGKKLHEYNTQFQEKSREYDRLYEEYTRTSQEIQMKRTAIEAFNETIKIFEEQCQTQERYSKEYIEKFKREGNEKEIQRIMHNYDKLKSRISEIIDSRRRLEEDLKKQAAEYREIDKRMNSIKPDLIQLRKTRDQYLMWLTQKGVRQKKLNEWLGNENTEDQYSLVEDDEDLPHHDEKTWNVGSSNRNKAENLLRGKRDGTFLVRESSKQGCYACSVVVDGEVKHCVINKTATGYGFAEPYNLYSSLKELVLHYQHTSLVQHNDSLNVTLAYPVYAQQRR
The subject of assay [2] is colorectal cancer HCT116 cell line. Description: Anti-proliferative SRB assay, HCT116. It counts as cell-based. The settings on record: 72 h exposure; for GI50 HCT116: HCT116 cells; for GI50: Homo sapiens, HCT-116, HCT116 cells. As to the method: as §1
The next assay deals with PI3Kγ (Homo sapiens, UniProt P48736). Nature of the assay: PI3Kγ enzymatic assay (ADP-Glo Luminescent assay). It counts as biochemical. As to the method: Kinase-Glo Luminescent Kinase assay (Promega) was performed to determine the PI3Kα inhibitory activity, while ADP-Glo Luminescent assay (Promega) was performed to identify the inhibitory activity against PI3Kβ, γ, or δ. The kinase buffer was composed of HEPES (50 mM, pH 7.5), MgCl2 (3 mM), EGTA (1 mM), NaCl (100 mM), CHAPS (0.03%) and DTT (2 mM). The serially diluted compound solutions […] were successively added to a 384-well plate. Afterwards, the solution of kinase […] in the kinase buffer and the solution of substrate (5 mL) in the kinase buffer containing PIP2 and ATP were added to each well of the assay plate for starting the reaction. Kinase buffer was added instead to the control well without enzyme. The final concentrations of PI3Kα, PI3Kβ, PI3Kγ, PI3Kδ, PIP2, and ATP in corresponding kinase reaction mixture were 1.65 nM, 4.8 nM, 7.6 nM, 5.7 nM, […], respectively. After being incubated at room temperature for 1 h, Kinase-Glo reagent […] was added to each well of the PI3Kα assay plate to quench the reaction. Subsequently, the mixture needs to be mixed briefly with centrifuge and shaken slowly for 15 min before being read on a plate reader for luminescence. As for PI3Kβ, γ, or δ, reaction mixture (5 mL) was transferred to a new 384-plate and ADP-Glo reagent (5 mL) was added for stopping the reaction. The mixture was treated briefly with centrifuge, shaken slowly, and equilibrated for 40 min. Kinase Detection reagent […] was added to each well. Before reading on a plate reader for luminescence, the resultant mixture was incubated at room temperature for 1 h. After calculating the percent inhibition from the RLU values, the curves were fitted in Graphpad Prism 5 to give IC50 values.
Chain of PI3Kγ (P48736 whole entry): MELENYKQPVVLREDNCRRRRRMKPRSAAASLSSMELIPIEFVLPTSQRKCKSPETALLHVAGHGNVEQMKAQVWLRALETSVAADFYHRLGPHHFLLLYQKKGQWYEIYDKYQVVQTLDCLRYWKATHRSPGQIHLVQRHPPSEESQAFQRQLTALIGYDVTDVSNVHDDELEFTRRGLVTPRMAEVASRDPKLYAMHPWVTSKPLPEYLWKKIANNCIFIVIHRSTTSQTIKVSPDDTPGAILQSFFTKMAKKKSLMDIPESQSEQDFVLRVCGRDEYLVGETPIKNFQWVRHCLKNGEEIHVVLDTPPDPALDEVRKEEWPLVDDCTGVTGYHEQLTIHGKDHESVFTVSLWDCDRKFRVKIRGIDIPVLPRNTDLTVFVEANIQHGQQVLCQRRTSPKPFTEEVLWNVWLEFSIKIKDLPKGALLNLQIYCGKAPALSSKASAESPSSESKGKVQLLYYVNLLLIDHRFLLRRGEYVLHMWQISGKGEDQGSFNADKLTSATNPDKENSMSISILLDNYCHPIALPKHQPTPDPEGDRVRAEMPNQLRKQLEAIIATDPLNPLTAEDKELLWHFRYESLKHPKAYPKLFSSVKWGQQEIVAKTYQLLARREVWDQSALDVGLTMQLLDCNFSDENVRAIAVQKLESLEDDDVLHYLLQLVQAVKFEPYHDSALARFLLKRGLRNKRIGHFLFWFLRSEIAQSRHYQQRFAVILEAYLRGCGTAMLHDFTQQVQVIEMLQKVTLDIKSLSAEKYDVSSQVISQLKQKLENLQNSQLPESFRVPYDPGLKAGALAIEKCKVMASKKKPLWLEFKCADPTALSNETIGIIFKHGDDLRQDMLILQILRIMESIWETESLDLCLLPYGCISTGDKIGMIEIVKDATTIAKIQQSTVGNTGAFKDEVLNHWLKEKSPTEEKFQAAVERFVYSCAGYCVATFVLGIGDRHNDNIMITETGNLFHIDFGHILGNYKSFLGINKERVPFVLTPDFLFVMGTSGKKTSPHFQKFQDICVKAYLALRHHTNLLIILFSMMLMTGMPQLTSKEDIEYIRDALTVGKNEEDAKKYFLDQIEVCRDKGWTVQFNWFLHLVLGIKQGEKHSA

The next assay deals with PI3Kβ (Homo sapiens, UniProt P42338). Description: PI3Kβ enzymatic assay (ADP-Glo Luminescent assay). It is filed as biochemical.
Chain of PI3Kβ (P42338 whole entry): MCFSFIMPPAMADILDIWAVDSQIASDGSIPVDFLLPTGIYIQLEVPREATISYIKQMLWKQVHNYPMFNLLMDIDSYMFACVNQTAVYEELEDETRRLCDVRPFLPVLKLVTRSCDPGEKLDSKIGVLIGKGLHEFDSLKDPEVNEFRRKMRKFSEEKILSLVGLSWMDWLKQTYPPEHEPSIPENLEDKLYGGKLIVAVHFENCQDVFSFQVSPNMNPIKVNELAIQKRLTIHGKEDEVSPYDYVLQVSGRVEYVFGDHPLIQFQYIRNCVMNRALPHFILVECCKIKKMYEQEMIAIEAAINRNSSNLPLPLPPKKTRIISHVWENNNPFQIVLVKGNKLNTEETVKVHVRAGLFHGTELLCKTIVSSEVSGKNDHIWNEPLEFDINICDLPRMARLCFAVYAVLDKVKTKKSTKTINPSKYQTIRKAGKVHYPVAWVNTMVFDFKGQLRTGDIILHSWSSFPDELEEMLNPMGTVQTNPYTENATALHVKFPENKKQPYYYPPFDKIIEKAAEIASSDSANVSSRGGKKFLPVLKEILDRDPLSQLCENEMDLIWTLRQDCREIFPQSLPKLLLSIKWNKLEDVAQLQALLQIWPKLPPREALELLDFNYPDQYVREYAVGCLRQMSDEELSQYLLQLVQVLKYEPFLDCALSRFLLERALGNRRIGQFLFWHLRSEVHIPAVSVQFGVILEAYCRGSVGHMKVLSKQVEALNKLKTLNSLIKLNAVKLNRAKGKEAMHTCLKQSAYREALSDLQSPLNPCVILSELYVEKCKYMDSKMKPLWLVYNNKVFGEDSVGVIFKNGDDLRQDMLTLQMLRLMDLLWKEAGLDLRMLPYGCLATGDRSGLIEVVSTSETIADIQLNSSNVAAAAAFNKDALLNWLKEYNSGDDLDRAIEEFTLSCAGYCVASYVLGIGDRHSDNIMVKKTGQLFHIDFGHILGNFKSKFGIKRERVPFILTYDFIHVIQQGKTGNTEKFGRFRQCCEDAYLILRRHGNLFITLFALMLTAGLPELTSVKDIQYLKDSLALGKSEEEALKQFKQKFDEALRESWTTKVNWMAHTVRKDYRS
Chain of PI3Kβ (P27986 whole entry partner): as the sequence (P27986 whole entry partner) above
The target of assay [3] is mTOR (1362-end, Millipore) (Homo sapiens, UniProt P42345). Description: mTOR enzymatic assay (Lance Ultra assay). It is filed as biochemical.
Description: The kinase buffer was composed of HEPES (50 mM, pH 7.5), MgCl2 (10 mM), EGTA (1 mM), MnCl2 (3 mM), Tween-20 (0.01%) and DTT (2 mM). The solution of substrate in the kinase buffer contained ULight-4E-BP1 peptide (Thr37/46, PE) and ATP. […] After being incubated at room temperature for 1 h, kinase detection buffer (10 mL) containing EDTA and Eu-anti-phospho-4E-BP1 antibody (Thr37/46, PE) was added to each well of the assay plate. Before reading on a plate reader, the mixture needs to be mixed briefly with centrifuge and then allowed to equilibrate for 1 h. After calculating the percent inhibition from Lance signal, the curves were fitted in Graphpad Prism 5 to give IC50 values.
For a further assay, the target named is PI3Kδ (Homo sapiens, UniProt O00329). Nature of the assay: PI3Kδ enzymatic assay (ADP-Glo Luminescent assay). It is filed as biochemical.
Chain of PI3Kδ (O00329 whole entry): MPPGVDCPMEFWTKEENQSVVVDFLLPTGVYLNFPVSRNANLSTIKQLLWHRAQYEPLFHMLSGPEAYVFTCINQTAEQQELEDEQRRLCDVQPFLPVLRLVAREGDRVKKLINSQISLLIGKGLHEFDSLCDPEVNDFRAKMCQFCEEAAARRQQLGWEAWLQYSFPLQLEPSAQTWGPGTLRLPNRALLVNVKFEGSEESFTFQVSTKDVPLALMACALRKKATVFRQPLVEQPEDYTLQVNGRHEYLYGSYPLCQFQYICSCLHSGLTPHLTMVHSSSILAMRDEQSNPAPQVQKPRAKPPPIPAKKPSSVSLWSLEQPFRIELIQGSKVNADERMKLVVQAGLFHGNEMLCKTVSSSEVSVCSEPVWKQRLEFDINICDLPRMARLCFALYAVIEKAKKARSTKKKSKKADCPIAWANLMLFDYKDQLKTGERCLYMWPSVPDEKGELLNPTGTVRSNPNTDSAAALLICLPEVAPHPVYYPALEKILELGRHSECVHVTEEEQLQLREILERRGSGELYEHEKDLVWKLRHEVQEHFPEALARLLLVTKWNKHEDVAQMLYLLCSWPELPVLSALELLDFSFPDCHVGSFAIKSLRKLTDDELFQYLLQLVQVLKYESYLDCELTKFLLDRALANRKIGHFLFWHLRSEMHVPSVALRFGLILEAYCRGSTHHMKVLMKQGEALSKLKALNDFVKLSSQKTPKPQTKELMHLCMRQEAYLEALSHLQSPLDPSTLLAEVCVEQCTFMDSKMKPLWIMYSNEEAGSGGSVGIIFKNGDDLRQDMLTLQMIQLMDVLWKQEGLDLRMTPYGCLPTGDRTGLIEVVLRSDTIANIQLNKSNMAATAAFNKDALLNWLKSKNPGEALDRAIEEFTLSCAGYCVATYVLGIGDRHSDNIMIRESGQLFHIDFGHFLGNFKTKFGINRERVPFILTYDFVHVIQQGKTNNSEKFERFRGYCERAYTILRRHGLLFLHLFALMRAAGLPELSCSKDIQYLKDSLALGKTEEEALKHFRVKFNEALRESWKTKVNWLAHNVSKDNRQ
Chain of PI3Kδ (P27986 whole entry partner): as the sequence (P27986 whole entry partner) above

pIC50: −log10 of the molar value.

Description for PI3Kα: (§2) Kinase-Glo Luminescent Kinase assay (Promega) was performed to determine the PI3Kα inhibitory activity, while ADP-Glo Luminescent assay (Promega) was performed to identify the inhibitory activity against PI3Kβ, γ, or δ. The kinase buffer was composed of HEPES (50 mM, pH 7.5), MgCl2 (3 mM), EGTA (1 mM), NaCl (100 mM), CHAPS (0.03%) and DTT (2 mM). The serially diluted compound solutions (2.5 mL) were successively added to a 384-well plate. Afterwards, the solution of kinase (2.5 mL) in the kinase buffer and the solution of substrate (5 mL) in the kinase buffer containing PIP2 and ATP were added to each well of the assay plate for starting the reaction. Kinase buffer was added instead to the control well without enzyme. […] After being incubated at room temperature for 1 h, Kinase-Glo reagent (10 mL) was added to each well of the PI3Kα assay plate to quench the reaction. […] The mixture was treated briefly with centrifuge, shaken slowly, and equilibrated for 40 min. Kinase Detection reagent (10 mL) was added to each well. Before reading on a plate reader for luminescence, the resultant mixture was incubated at room temperature for 1 h. After calculating the percent inhibition from the RLU values, the curves were fitted in Graphpad Prism 5 to give IC50 values.
Description for PI3Kβ: as §2
Description for PI3Kδ: as §2

For the compound `COc1ncc(-c2ccc3nccc(/C=C/C(=O)N4CCOCC4)c3c2)cc1NS(=O)(=O)c1ccc(F)cc1F` [8h, (E)-2,4-difluoro-N-(2-methoxy-5-(4-(3-morpholino-3-oxoprop-1-en-1-yl)quinolin-6-yl)pyridin-3-yl)benzenesulfonamide], the concentration for 50% growth inhibition (GI50) was under 500 nM in assay [1] (Homo sapiens, PC-3, 72 h); 360 nM in assay [1]; 510 nM in assay [2]. Moreover, the pIC50 on PI3Kα is 9.28. The “GI50 HCT116” value in assay [2] was “sub-micromolar”.
Take `COc1ncc(-c2ccc3nccc(/C=C/C(=O)N4CCCCC4)c3c2)cc1NS(=O)(=O)c1ccc(F)cc1F` [8g, (E)-2,4-difluoro-N-(2-methoxy-5-(4-(3-oxo-3-(piperidin-1-yl)prop-1-en-1-yl)quinolin-6-yl)pyridin-3-yl)benzenesulfonamide]: the GI50 in assay [1] (Homo sapiens, PC-3, 72 h) worked out at 2500 nM; in assay [2] it was 1300 nM. Also, the pIC50 on PI3Kα is 9.17.
In the same order, the values of `COc1ncc(-c2ccc3nccc(/C=C/C(=O)NCCN4CCOCC4)c3c2)cc1NS(=O)(=O)c1ccc(F)cc1F` [8n, (E)-3-(6-(5-((2,4-difluorophenyl)sulfonamido)-6-methoxypyridin-3-yl)quinolin-4-yl)-N-(2-morpholinoethyl)acrylamide] are 1430 nM, 1790 nM and 8.96.
In the case of `COc1ncc(-c2ccc3nccc(-c4ccnnc4)c3c2)cc1NS(=O)(=O)c1ccc(F)cc1F` [GSK2126458, reference compound], the GI50 in assay [1] (Homo sapiens, PC-3, 72 h) turned out to be 220 nM; in assay [2], 180 nM. At PI3Kγ, the pIC50 was 9.36.
On to `COc1ncc(-c2ccc3nccc(/C=C/C(=O)NC4CCC4)c3c2)cc1NS(=O)(=O)c1ccc(F)cc1F` [8e, (E)-N-cyclobutyl-3-(6-(5-((2,4-difluorophenyl)sulfonamido)-6-methoxypyridin-3-yl)quinolin-4-yl)acrylamide], for which the GI50 in assay [1] (Homo sapiens, PC-3, 72 h) came to 1480 nM; in assay [2], 1250 nM. For the same compound, on PI3Kα, the pIC50 was 8.84.
For the compound `COc1ncc(-c2ccc3nccc(/C=C/C(=O)N(C)CCO)c3c2)cc1NS(=O)(=O)c1ccc(F)cc1F` [8c, (E)-3-(6-(5-((2,4-difluorophenyl)sulfonamido)-6-methoxypyridin-3-yl)quinolin-4-yl)-N-(2-hydroxyethyl)-N-methylacrylamide], the 50% growth inhibitory concentration (GI50) in assay [1] (Homo sapiens, PC-3, 72 h) was under 500 nM; in assay [1] it was 450 nM; in assay [2] it was 960 nM. Besides, the pIC50 was 9.17 against PI3Kα; 8.92 on PI3Kβ; 9.30 against PI3Kγ; 8.92 in assay [3]; 8.89 against PI3Kδ. In addition, the “GI50 HCT116” value in assay [2] is “sub-micromolar”.
`COc1ncc(-c2ccc3nccc(/C=C/C(=O)NC(C)(C)C)c3c2)cc1NS(=O)(=O)c1ccc(F)cc1F` [8a, (E)-N-(tert-butyl)-3-(6-(5-((2,4-difluorophenyl)sulfonamido)-6-methoxypyridin-3-yl)quinolin-4-yl)acrylamide]: the GI50 in assay [1] (Homo sapiens, PC-3, 72 h) came to 1900 nM; in assay [2] it was 700 nM. For the same compound, the pIC50 against PI3Kα was 9.20.
`COc1ncc(-c2ccc3nccc(/C=C/C(=O)NC4CC4)c3c2)cc1NS(=O)(=O)c1ccc(F)cc1F` [8d, (E)-N-cyclopropyl-3-(6-(5-((2,4-difluorophenyl)sulfonamido)-6-methoxypyridin-3-yl)quinolin-4-yl)acrylamide]: the 50% growth inhibitory concentration (GI50) in assay [1] (Homo sapiens, PC-3, 72 h) is 1870 nM; in assay [2], 1560 nM. On PI3Kα, the negative logarithm of the IC50 (pIC50) was 8.99.
Turning to `COc1ncc(-c2ccc3nccc(/C=C/C(=O)N4CCC(O)CC4)c3c2)cc1NS(=O)(=O)c1ccc(F)cc1F` [8k, (E)-2,4-difluoro-N-(5-(4-(3-(4-hydroxypiperidin-1-yl)-3-oxoprop-1-en-1-yl)quinolin-6-yl)-2-methoxypyridin-3-yl)benzenesulfonamide], the GI50 in assay [1] (Homo sapiens, PC-3, 72 h) is under 500 nM; in assay [1], 280 nM; in assay [2] it was 320 nM. At PI3Kα, this compound had a pIC50 of 9.10. Further, the “GI50 HCT116” value in assay [2] is given as “sub-micromolar”.
On to `COc1ncc(-c2ccc3nccc(/C=C/C(=O)Nc4ccccc4)c3c2)cc1NS(=O)(=O)c1ccc(F)cc1F` [8o, (E)-3-(6-(5-((2,4-difluorophenyl)sulfonamido)-6-methoxypyridin-3-yl)quinolin-4-yl)-N-phenylacrylamide], for which the GI50 is 4830 nM in assay [1] (Homo sapiens, PC-3, 72 h) and 1520 nM in assay [2]. The pIC50 against PI3Kα is 8.74.
Consider `COc1ncc(-c2ccc3ncccc3c2)cc1NS(=O)(=O)c1ccc(F)cc1F` [compound 10, 2,4-Difluoro-N-(2-methoxy-5-(quinolin-6-yl)pyridin-3-yl)benzenesulfonamide], for which the GI50 in assay [1] (Homo sapiens, PC-3, 72 h) is 7160 nM; in assay [2], 3670 nM. For the same compound, on PI3Kα, the pIC50 was 7.85.
Regarding `COc1ncc(-c2ccc3nccc(/C=C/C(=O)N4CCCC4)c3c2)cc1NS(=O)(=O)c1ccc(F)cc1F` [8f, (E)-2,4-difluoro-N-(2-methoxy-5-(4-(3-oxo-3-(pyrrolidin-1-yl)prop-1-en-1-yl)quinolin-6-yl)pyridin-3-yl)benzenesulfonamide], the GI50 came to 950 nM in assay [1] (Homo sapiens, PC-3, 72 h) and 1460 nM in assay [2]. Also, the negative-log IC50 (pIC50) on PI3Kα was 9.21.
For `COc1ncc(-c2ccc3nccc(/C=C/C(=O)N4CCN(C(C)C)CC4)c3c2)cc1NS(=O)(=O)c1ccc(F)cc1F` [8j, (E)-2,4-difluoro-N-(5-(4-(3-(4-isopropylpiperazin-1-yl)-3-oxoprop-1-en-1-yl)quinolin-6-yl)-2-methoxypyridin-3-yl)benzenesulfonamide], the concentration for 50% growth inhibition (GI50) in assay [1] (Homo sapiens, PC-3, 72 h) was determined as 880 nM; in assay [2] it was 970 nM. Besides, the pIC50 at PI3Kα was 8.72.
In the case of `COCCNC(=O)/C=C/c1ccnc2ccc(-c3cnc(OC)c(NS(=O)(=O)c4ccc(F)cc4F)c3)cc12` [8b, (E)-3-(6-(5-((2,4-difluorophenyl)sulfonamido)-6-methoxypyridin-3-yl)quinolin-4-yl)-N-(2-methoxyethyl)acrylamide], the GI50 is 840 nM in assay [1] (Homo sapiens, PC-3, 72 h) and 1130 nM in assay [2]. The negative-log IC50 (pIC50) against PI3Kα was 8.69.
On to `COc1ncc(-c2ccc3nccc(/C=C/C(=O)N4CCCC(O)C4)c3c2)cc1NS(=O)(=O)c1ccc(F)cc1F` (stereo not shown) [8l, (E)-2,4-difluoro-N-(5-(4-(3-(3-hydroxypiperidin-1-yl)-3-oxoprop-1-en-1-yl)quinolin-6-yl)-2-methoxypyridin-3-yl)benzenesulfonamide], for which the GI50 in assay [1] (Homo sapiens, PC-3, 72 h) is 1310 nM; in assay [2], 1560 nM. Besides, at PI3Kα, the negative logarithm of the IC50 (pIC50) is 9.12.
For `COc1ncc(-c2ccc3nccc(/C=C/C(=O)N4CCC(CO)CC4)c3c2)cc1NS(=O)(=O)c1ccc(F)cc1F` [8m, (E)-2,4-difluoro-N-(5-(4-(3-(4-(hydroxymethyl)piperidin-1-yl)-3-oxoprop-1-en-1-yl)quinolin-6-yl)-2-methoxypyridin-3-yl)benzenesulfonamide], in that order: 2560 nM, 1290 nM and 9.17.

The values above are taken from paper PMC6491818, “Novel 4-Acrylamido-Quinoline Derivatives as Potent PI3K/mTOR Dual Inhibitors: The Design, Synthesis, and in vitro and in vivo Biological Evaluation” (Frontiers in Chemistry, 2019).
